In patent US10765114B2, “4-amino-6-(pyridyl and 2-substitutedphenyl)-picolinates and 6-amino-2-(pyridyl and 2-substitutedphenyl)-pyrimidine-4-carboxylates and their use as herbicides” (Dow AgroSciences LLC, priority 2013, dated 2020):
Where two headings read alike, the source gives them in different places.

Tests used:
[1] = system: Key Broadleaf Weed and Crop Species; assay: Post-Emergent Test II (Table 5); type: in vivo; details: post-emergence, 336 h; for pest or weed control at 70 g/ha: application rate 70 (kg ai/ha; footnote: g ai/ha); for pest or weed control at 140 g/ha: application rate 140 (kg ai/ha; footnote: g ai/ha)
How it was run: (§1)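 Seedlings are raised 7-21 days in Metro-Mix 360 (pH 6.0-6.8) under greenhouse conditions, then sprayed at the first or second true leaf stage. Application is 187 L/ha, with serial rates down to 1/16× of the highest. Plants are subirrigated, and percent injury is rated visually after 14 days.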

[2] = system: Key Grass and Sedge Weeds as well as Grass Crops; assay: Post-Emergent Test II (Table 6); type: in vivo; details: post-emergence, 336 h, 14 days after application; for pest or weed control at 70 g/ha: 70 g ai/ha; for pest or weed control at 140 g/ha: 140 g ai/ha
How it was run: as §1

[3] = Abutilon theophrasti, ABUTH: velvetleaf (Abutilon theophrasti), read-out: Visual Growth Reduction (%) 14 Days After Application ABUTH
[4] = Amaranthus retroflexus, AMARE: redroot pigweed (Amaranthus retroflexus), read-out: Visual Growth Reduction (%) 14 Days After Application AMARE
[5] = Brassica napus, BRSSS: oilseed rape, canola (Brassica napus), read-out: Visual Growth Reduction (%) 14 Days After Application BRSSS
[6] = Chenopodium album, CHEAL: lambsquarters (Chenopodium album), read-out: Visual Growth Reduction (%) 14 Days After Application CHEAL
[7] = Euphorbia heterophylla, EPHHL: wild poinsettia (Euphorbia heterophylla), read-out: Visual Growth Reduction (%) 14 Days After Application EPHHL
[8] = Helianthus annuus, HELAN: sunflower (Helianthus annuus), read-out: Visual Growth Reduction (%) 14 Days After Application HELAN
[9] = Viola tricolor, VIOTR: wild pansy (Viola tricolor), read-out: Visual Growth Reduction (%) 14 Days After Application VIOTR
[10] = CYPSS, read-out: Visual Growth Reduction (%) 14 Days After Application CYPSS
[11] = DIGSA: crabgrass (Digitaria sanguinalis), read-out: Visual Growth Reduction (%) 14 Days After Application DIGSA
[12] = ECHSS, read-out: Visual Growth Reduction (%) 14 Days After Application ECHSS
[13] = ORYSS (crop), read-out: Visual Growth Reduction (%) 14 Days After Application ORYSS
[14] = SETFA: giant foxtail (Setaria faberi), read-out: Visual Growth Reduction (%) 14 Days After Application SETFA
[15] = SORVU: grain sorghum (Sorghum vulgare), read-out: Visual Growth Reduction (%) 14 Days After Application SORVU
[16] = TRZSS (crop), read-out: Visual Growth Reduction (%) 14 Days After Application TRZSS
[17] = ZEAMX: maize, corn (Zea mays), read-out: Visual Growth Reduction (%) 14 Days After Application ZEAMX

Compound	melting point	pest or weed control at 70 g/ha [1, 3]	pest or weed control at 140 g/ha [1, 3]	pest or weed control at 70 g/ha [1, 4]	pest or weed control at 140 g/ha [1, 4]	pest or weed control at 70 g/ha [1, 5]	pest or weed control at 140 g/ha [1, 5]	pest or weed control at 70 g/ha [1, 6]	pest or weed control at 140 g/ha [1, 6]	pest or weed control at 70 g/ha [1, 7]	pest or weed control at 140 g/ha [1, 7]	pest or weed control at 70 g/ha [1, 8]	pest or weed control at 140 g/ha [1, 8]	pest or weed control at 70 g/ha [1, 9]	pest or weed control at 140 g/ha [1, 9]	pest or weed control at 70 g/ha [2, 10]	pest or weed control at 140 g/ha [2, 10]	pest or weed control at 70 g/ha [2, 11]	pest or weed control at 140 g/ha [2, 11]	pest or weed control at 70 g/ha [2, 12]	other results
COC(=O)c1nc(-c2ccc(C)nc2)c(F)c(N)c1Cl [Compound 90]	191 °C	85 to 94%	95 to 100%	95 to 100%	95 to 100%	60 to 74%	75 to 84%	95 to 100%	95 to 100%	85 to 94%	95 to 100%	95 to 100%	95 to 100%	0 to 29%	45 to 59%	0 to 29%	0 to 29%	0 to 29%	45 to 59%	75 to 84%	pest or weed control at 140 g/ha [2, 12]: 75 to 84%; pest or weed control at 70 g/ha [2, 13]: 0 to 29%; pest or weed control at 140 g/ha [2, 13]: 0 to 29%; pest or weed control at 70 g/ha [2, 14]: 45 to 59%; pest or weed control at 140 g/ha [2, 14]: 60 to 74%; pest or weed control at 70 g/ha [2, 15]: 45 to 59%; pest or weed control at 140 g/ha [2, 15]: 45 to 59%; pest or weed control at 70 g/ha [2, 16]: 30 to 44%; pest or weed control at 140 g/ha [2, 16]: 30 to 44%; pest or weed control at 70 g/ha [2, 17]: 95 to 100%; pest or weed control at 140 g/ha [2, 17]: 95 to 100%
Cc1c(-c2cc(N)c(Cl)c(C(=O)O)n2)ccc(Cl)c1Cl [Compound 28]	174 to 175 °C	95 to 100%	95 to 100%	95 to 100%	95 to 100%	60 to 74%	75 to 84%	95 to 100%	95 to 100%	0 to 29%	0 to 29%	85 to 94%	85 to 94%	0 to 29%	0 to 29%	0 to 29%	0 to 29%	0 to 29%	0 to 29%	0 to 29%	pest or weed control at 140 g/ha [2, 12]: 0 to 29%; pest or weed control at 70 g/ha [2, 13]: 0 to 29%; pest or weed control at 140 g/ha [2, 13]: 0 to 29%; pest or weed control at 70 g/ha [2, 14]: 0 to 29%; pest or weed control at 140 g/ha [2, 14]: 0 to 29%; pest or weed control at 70 g/ha [2, 15]: 0 to 29%; pest or weed control at 140 g/ha [2, 15]: 0 to 29%; pest or weed control at 70 g/ha [2, 16]: 0 to 29%; pest or weed control at 140 g/ha [2, 16]: 0 to 29%; pest or weed control at 70 g/ha [2, 17]: 30 to 44%; pest or weed control at 140 g/ha [2, 17]: 60 to 74%
COC(=O)c1nc(-c2ccc(Cl)c(F)c2C)cc(N)c1Cl [Compound 73]	128 to 134 °C	95 to 100%	95 to 100%	95 to 100%	95 to 100%	95 to 100%	95 to 100%	95 to 100%	95 to 100%	75 to 84%	75 to 84%	95 to 100%	95 to 100%	85 to 94%	95 to 100%	95 to 100%	95 to 100%	0 to 29%	0 to 29%	30 to 44%	pest or weed control at 140 g/ha [2, 12]: 45 to 59%; pest or weed control at 70 g/ha [2, 13]: 0 to 29%; pest or weed control at 140 g/ha [2, 13]: 0 to 29%; pest or weed control at 70 g/ha [2, 14]: 30 to 44%; pest or weed control at 140 g/ha [2, 14]: 45 to 59%; pest or weed control at 70 g/ha [2, 15]: 45 to 59%; pest or weed control at 140 g/ha [2, 15]: 60 to 74%; pest or weed control at 70 g/ha [2, 16]: 45 to 59%; pest or weed control at 140 g/ha [2, 16]: 60 to 74%; pest or weed control at 70 g/ha [2, 17]: 60 to 74%; pest or weed control at 140 g/ha [2, 17]: 75 to 84%
COC(=O)c1nc(-c2ccc(Cl)nc2Cl)cc(N)c1Cl [Compound 15, methyl 4-amino-2′,5,6′-trichloro-[2,3′-bipyridine]-6-carboxylate]	231 °C	75 to 84%	85 to 94%	95 to 100%	95 to 100%	60 to 74%	75 to 84%	85 to 94%	85 to 94%	0 to 29%	0 to 29%	85 to 94%	95 to 100%	30 to 44%	30 to 44%	0 to 29%	0 to 29%	0 to 29%	0 to 29%	0 to 29%	pest or weed control at 140 g/ha [2, 12]: 0 to 29%; pest or weed control at 70 g/ha [2, 13]: 0 to 29%; pest or weed control at 140 g/ha [2, 13]: 0 to 29%; pest or weed control at 70 g/ha [2, 14]: 0 to 29%; pest or weed control at 140 g/ha [2, 14]: 0 to 29%; pest or weed control at 70 g/ha [2, 15]: 0 to 29%; pest or weed control at 140 g/ha [2, 15]: 0 to 29%; pest or weed control at 70 g/ha [2, 16]: 0 to 29%; pest or weed control at 140 g/ha [2, 16]: 0 to 29%; pest or weed control at 70 g/ha [2, 17]: 0 to 29%; pest or weed control at 140 g/ha [2, 17]: 0 to 29%
